Experimental data as given in publication PMC8279406 (Journal of Medicinal Chemistry, 2021).

Key:
[1] = test system: recombinant K26GFP HSV-1 strain; test: Infection neutralization assay, transfected J cells, K26GFP HSV-1, EGFP expression; assay type: cell-based; conditions: for effect on HSV-1 infection (in words): J cells expressing nectin1 alone; for effect on virus entry (in words): J cells expressing nectin1 plus αvβ6 alone
Text: To this aim, we selected the J cells, which are negative for gD receptors and therefore cannot be infected by HSV-1 unless gD cognate receptors (i.e., nectin1) are transgenically expressed. […] In particular, J cells were transfected with low amounts of nectin1 plasmid, plus either αvβ6 or αvβ8 integrin plasmid or both, and then infected with the recombinant K26GFP HSV-1 strain. Indeed, the capsid protein ICP26 of this strain is fused to the green fluorescent protein (GFP),[60] whose cellular expression can be used to measure the viral infection. Thus, the K26GFP entry in J cells after compound treatment was evaluated using fluorescent microscopy (Figure 4A–T), and the enhanced green fluorescent protein (EGFP) expression was quantified using flow cytometry as the mean fluorescence intensity (MFI) of gated cells (Figure 4U). […] In parallel, we also evaluated the HSV infection in J cells expressing nectin1 plus either αvβ6 or αvβ8 alone.
J cells were transfected with a low amount (75 ng of DNA/24 well) of nectin1 alone (A–E), or with the same amount of nectin1 plus αvβ6 integrin (300 ng DNA/24 well) (F–J), or plus αvβ8 integrin (300 ng DNA/24 well) (K–O), or plus both the integrin receptors (P–T). […] The cells were infected with K26GFP. The nonpenetrated virus was inactivated by an acid wash. Infectivity was measured at 16 h after infection as EGFP expression. (A)–(T) panels show the EGFP expression in each sample for a typical experiment. (U) K26GFP infection was quantified as EGFP protein expression in the flow cytometry assay as the mean fluorescence intensity (MFI) of gated cells. Histograms represent the average of triplicates ± SD.
In other experiments, J cells were transfected with low amounts of plasmids encoding nectin1 (75 ng of DNA/24 well), plus or minus plasmids encoding αv + β6 or αv + β8 integrins (300 ng of DNA/24 well) or together by means of Lipofect 2000 (Life Technologies). The total amount of transfected plasmid DNA was made equal (675 ng/24 well) by the addition of Erb-2 plasmid DNA. […] Following infection, the unpenetrated virus was inactivated by means of an acid wash (40 mM citric acid, 10 mM KCl, 135 mM NaCl, pH 3),[87] and the cells were incubated for a further 16 h in the absence of the peptides or antibody. The extent of infection was assessed through EGFP expression.
Cytofluorimetric analyses were performed using an AccuriC6 flow cytometer (Becton Dickinson). A least 10 000 events were acquired for each sample. Microphotography of the inhibition experiment was conducted using a Nikon Eclipse Ni microscope.

[2] = test system: nectin1; test: Integrin internalization assay, surface nectin1 control by flow cytometry; assay type: cell-based; conditions: J cells with nectin1, αvβ6 and αvβ8, 700 μM, 1 h at 37 °C
Protocol: Figure 5 Integrin internalization assay. J cells were transfected with a low amount (75 ng of DNA/24 well) of nectin1 plus αvβ6 integrin (300 ng of DNA/24 well) and αvβ8 integrin (300 ng of DNA/24 well). Then, 48 h after transfection, the cells were exposed to 700 μM peptides for 1 h at 37 °C. Cells derived from samples treated or not treated with peptides were incubated for 1 h at 4 °C with FAB4155A (mAbβ6), FAB4775A (mAbβ8), and R1.302 (mAbnectin1) mAbs. Samples incubated with R1.302 were washed and subsequently incubated for 1 h at 4 °C with the allophycocyanin (APC) mouse secondary antibody. Integrin and nectin1 surface expression levels were quantified as flow cytometry expression of the APC mean fluorescence intensity (MFI) of gated cells. Histograms represent the average of triplicates ± SD.
J cells were transfected with low amounts of plasmids encoding nectin1 (75 ng of DNA/24 well), plus plasmids encoding αv + β6 and αv + β8 integrins (300 ng of DNA/24 well) by means of Lipofect 2000 (Life Technologies). Then, 48 h after transfection, the cells were incubated with a single concentration of peptides (700 μM) for 1 h at 37 °C. At the end of the treatment with the peptides, half of the sample was used to visualize the expression of integrins β6 and β8 or of nectin1 used as a control in a flow cytometry assay. […]

[3] = test system: gHsolST; test: gH binding assay, gHsolST binding to transfected J cells; assay type: cell-based, HSV-1; conditions: J cells with nectin1, αvβ6 and αvβ8, 700 μM peptide, 2 μM gHsolST
Protocol: To further verify this hypothesis, the soluble form of gH (gHsolST) was used in a soluble protein in the cell-binding assay on J cells transfected with nectin1 and the αvβ6 and αvβ8 integrins, treated or untreated with each peptide.
Figure 6 gH binding assay. J cells were transfected with a low amount (75 ng of DNA/24 well) of nectin1 plus αvβ6 integrin (300 ng of DNA/24 well) and αvβ8 integrin (300 ng of DNA/24 well). Then, 48 h after transfection, the cells were exposed to 700 μM peptides for 1 h at 37 °C. Cells derived from samples treated or not treated with peptides were incubated for 1 h at 4 °C with gHsolST or gBsolST. Samples were washed and subsequently incubated for 1 h at 4 °C with phycoerythrin (PE)-conjugated mAb to the One-STrEP tag (Strep-Tactin). gHsolST and gBsolST binding to the cell surface were quantified as the flow cytometry expression of the PE mean fluorescence intensity (MFI) of gated cells. Histograms represent the average of triplicates ± SD.
The remaining half of the samples were used for the gH binding assay. […] Control cells were incubated with 2 μM gBsolST in 100 μL of the same buffer used for gHsolST and the binding of soluble protein was detected as described for the gH binding assay. Cells were analyzed by cytofluorimetric analyses using an AccuriC6 flow cytometer (Becton Dickinson). […]

[4] = J cells expressing nectin1 plus both αvβ6 and αvβ8, 700 μM
[5] = J cells expressing nectin1 plus αvβ8 alone, 700 μM

| SMILES | effect on HSV-1 infection (in words) ([1]; 700 μM) | effect on HSV infection (in words) [1, 4] | effect on virus entry (in words) ([1]; 700 μM) | effect on HSV infection (in words) [1, 5] | surface expression of nectin1 (in words) [2] | binding of gHsolST to cells (in words) [3] |
| --- | --- | --- | --- | --- | --- | --- |
| CN1C(=O)[C@H](C2CCCCC2)NC(=O)[C@H](CC(=O)O)NC(=O)CNC(=O)[C@H](CCCNC(=N)N)NC(=O)CC[C@H]1C(N)=O [compound 6, [Arg-Gly-Asp-Chg-(NMe)Glu]-CONH2] | only treatment with R1.302 (B) was effective | significantly reduced | the virus entry was affected | inhibitory effects were detected only in the presence of 6 | not altered | strongly reduced |
| N=C(N)NCCC[C@@H]1NC(=O)CC[C@@H](C(N)=O)NC(=O)[C@H](C2CCCCC2)NC(=O)[C@H](CC(=O)O)NC(=O)CNC1=O [compound 1, [Arg-Gly-Asp-Chg-Glu]-CONH2] | only treatment with R1.302 (B) was effective | only partially impaired | the virus entry was affected | inhibitory effects were detected only in the presence of 6 | not altered | only partially reduced |
